{"source": "patent US8324282B2", "about": "“Alkylating agent combinations in the treatment of cancer” (Case Western Reserve University, priority 1999, dated 2012)", "key": {"[1]": {"tested_on": "AP sites in calf thymus DNA", "assay": "Competitive AP site binding assayed by Aldehyde Reactive Probe (ARP)", "from_the_text": "1. Analysis of chemical—modified AP Sites assayed by Aldehyde Reactive Probe (ARP). This is a competitive assay to measure the reactivity with AP site between ARP reagent (Dojindo Molecular Technologies Inc., Gaithersburg, Md.) and the screening compounds. ARP and MX have a similar reactivity with AP sites. They react specifically with an aldehyde group that is open ring form of the AP sites. Thus this assay will allow identification of compounds with potential to block AP site repair based on the binding affinity and efficiency to AP sites of screening compounds compared to ARP and MX.\na. AP site standard preparation: AP sites were produced in a calf thymus DNA by heat/acid-buffer solution. Intact calf thymus DNA was added to sodium citrate buffer (10 mM sodium citrate containing 10 mM NaH2PO4 and 10 mM NaCl, pH 5.0) and held at 70° C. for 30 min. The reaction was stopped by chilling rapidly on ice, and the DNA was then precipitated with cold ethanol, washed with 70% ethanol, dried, and resuspended in sterilized distilled water.\nb. […] After NC membrane was rinsed with washing buffer containing NaCl (0.26 M), EDTA (1 mM), Tris-HCI (20 mM), and Tween 20 (1%), ARP-AP sites are visualized with ECL reagents (Amersham Corp.) (FIG. 22A) and quantitated by scanning densitometer (FIG. 22B)."}, "[2]": {"tested_on": "AP-endonuclease (APE)", "assay": "AP site cleavage by AP-endonuclease (APE)", "type": "biochemical", "experimental": "2. AP sites cleavaged by AP-endonuclease (APE). […] The assay may be performed as follows (see also FIGS. 23A and B):\na. AP site is prepared by replacing single nucleoside with deoxyuridine in duplex oligonucleotides (40 mer).\nb. Regular AP site is produced in the duplex oligonucleotides by human uracil DNA glycosylase (LIDGase, Trevigen, Gaithersburg, Md.) to remove the uracil residue.\nc. To generate MX-adducted AP site substrates: the UDG-treated duplex oligonucleotides are mixed with 10 mM MX in buffer containing 10 mM KPO4, pH 7.1 and incubated at 37° C. After 30 min, the substrates are recovered by ethanol precipitation, lyophilized, resuspended in water, and stored at −20° C.\nd. APE-cleavage reaction: DNA substrates containing either regular AP-sites or chemicalmodified AP sites are incubated with APE (Trevigen, Gaithersburg, Md.) for 30 min and reactants are precipitated with 100% cold ethanol, washed with 70% ethanol and resuspended in TE buffer. The reactants are resolved by denaturing 20% polyacrylamide gel electrophoresis and visualized by silver staining (Silver Staining Kit, Pharmacia Biotech)."}, "[3]": {"tested_on": "DLD1 cells and HCT116 cells", "assay": "Potentiation of TMZ cytotoxicity by compound A in tumor cells", "type": "cell-based", "experimental": "(§1) On the basis of a similar molecular reaction to MX, (e.g., a primary amine with the carbonyl group of the abasic site), we tested whether a compound (Compound A) would have the ability to bind to AP site generated by TMZ and enhance the killing effect of TMZ. A has a MX-like structure to bind to AP site and also has fluorescence molecules to provide a signal for direct detection of modified AP sites using cellular image. […] In in vitro study, we observed A at non-toxic concentrations (1 mM) sensitized cells to TMZ-cytotoxicity 2-3-fold. In a xenograft model, A (2 mg/kg) combined with TMZ (80 mg/kg) enhanced anti-tumor effect in HCT116 and DLD1, two xenograft tumors with very high resistance to TMZ. Tumor growth delays were 13 days in HCT116 and 12 days in DLD1 treated with the combination of A and TMZ over TMZ alone. Thus, A has a similar effect to MX on interruption of BER and can potentiate chemotherapeutic agents such as alkylating agents. Results are depicted in FIGS. 14-16."}, "[4]": {"tested_on": "AP sites in DNA", "assay": "Cellular image of fluorescent A-modified AP sites", "type": "cell-based", "settings": "A alone", "experimental": "as §1"}}}
{"smiles": "NNC(=S)Nc1ccc(-c2c3ccc(=O)cc-3oc3cc(O)ccc23)c(C(=O)O)c1", "note": "[Compound A]", "values": [{"measurement": "binding to AP sites assayed with ARP", "setting": "[1]", "result": "able to bind to AP sites"}, {"measurement": "cleavage of modified AP sites by APE", "setting": "[2]", "result": "refractory to cleavage"}, {"measurement": "cytotoxicity of A alone", "setting": "[3]; 1 mM", "result": "non-toxic"}, {"measurement": "sensitization to TMZ-cytotoxicity", "setting": "[3]; A at 1 mM", "result": "2-3 fold"}, {"measurement": "fluorescence signal", "setting": "[4]", "result": "no visualized fluorescence signal"}]}
